Laboratory results as given in BindingDB's records for patent US10919852 (Chemocentryx, 2021).

Molecular target: Programmed cell death 1 ligand 1 (Homo sapiens, UniProt Q9NZQ7)
Experiment: Enzyme-Linked Immunosorbent Assay ELISA
Description: 96 Well plates were coated with […] of human PD-L1 (obtained from R&D) in PBS overnight at 4° C. The wells were then blocked with 2% BSA in PBS (W/V) with 0.05% TWEEN-20 for 1 hour at 37° C. The plates were washed 3 times with PBS/0.05% TWEEN-20 and the compounds were serial diluted (1:5) in dilution medium and added to the ELISA plates. Human PD-1 and biotin 0.3 μg/mL (ACRO Biosystems) were added and incubated for 1 hour at 37° C. then washed 3 times with PBS/0.05% TWEEN-20. A second block was performed with 2% BSA in PBS (W/V)/0.05% TWEEN-20 for 10 min at 37° C. and was washed 3 times with PBS/0.05% TWEEN-20. Streptavidin-HRP was added for 1 hour at 37° C. then washed 3 times with PBS/0.05% TWEEN-20. TMB substrate was added and reacted for 20 min at 37° C. A stop solution (2 N aqueous H2SO4) was added. The absorbance was read at 450 nm using a micro-plate spectrophotometer.

Sequence of Programmed cell death 1 ligand 1 (Q9NZQ7 whole entry): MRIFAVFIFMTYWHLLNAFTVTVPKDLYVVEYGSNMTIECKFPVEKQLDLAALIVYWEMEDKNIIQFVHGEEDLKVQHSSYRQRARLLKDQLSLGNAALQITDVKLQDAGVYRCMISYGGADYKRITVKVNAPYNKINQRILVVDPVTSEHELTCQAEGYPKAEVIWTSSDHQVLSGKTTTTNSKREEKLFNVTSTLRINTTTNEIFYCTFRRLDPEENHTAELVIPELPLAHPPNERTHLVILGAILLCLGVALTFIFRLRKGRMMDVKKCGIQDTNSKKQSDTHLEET

## CC1(F)CCN(CCCOc2cccc(-c3cccc4c3CC[C@@H]4Oc3cc(OCc4cncc(C#N)c4)c(CN[C@H]4CCC(=O)NC4)cc3Cl)c2Cl)CC1 [US10919852, Compound TABLE 1.280]
  IC50: in the range around 253 nM

## Cc1c(OCCCN2CCC(C)(F)CC2)cccc1-c1cccc2c1CC[C@@H]2Oc1cc(OCc2cc(C#N)cc(C#N)c2)c(CN[C@@H]2CCC[C@H]2O)cc1Cl [US10919852, Compound TABLE 1.294]
  IC50: in the range around 253 nM

## Cc1c(OCCCN2CC[C@H](F)C[C@@H]2C)cccc1-c1cccc2c1CC[C@@H]2Oc1cc(OCc2cc(C#N)cc(C#N)c2)c(CN[C@H]2CCC(=O)NC2)cc1Cl [US10919852, Compound TABLE 1.341]
  IC50: in the range around 253 nM

## CCOc1cc(O[C@H]2CCc3c(-c4cccc(OCCCN5[C@H](C)CC[C@H]5C)c4C)cccc32)c(Cl)cc1CN1CCCC[C@H]1C(=O)O [US10919852, Compound TABLE 1.381]
  IC50: in the range around 253 nM

## CCOc1cc(O[C@H]2CCc3c(-c4cccc(OCCCN5CCC5(C)C)c4C)cccc32)c(Cl)cc1CN1CC[C@H](C(=O)O)C1 [US10919852, Compound TABLE 1.412]
  IC50: in the range around 253 nM
